The values that follow come from patent publication US4870071A, “Prophylactic and therapeutic agnet for hepatic disorder” (Senju Pharmaceutical Co., Ltd., priority 1986, dated 1989).

Entries after “also recorded” stand apart in the source; their conditions may differ.

One data set has as its system mice. The data set is described as follows: Acute toxicity in mice, intravenous injection (LD50). From the text: Acute toxicity of the compounds according
to the invention in terms of LD50
Referring to the above table, the injection No. 1 was adjusted to pH 7.0-7.2 by adding sodium carbonate after dissolution of the sample.

Data set [1] is described as follows: Transfer to plasma and plasma level duration after oral administration. It counts as in vivo, rabbits. Particulars: for Transfer to bloodstream on oral administration: rabbit, in vivo. As for the experimental part: The sera separated from the blood samples were deproteinized with trichloroacetic acid and, then, free cysteine in the sera as well as cysteine resulting from hydrolysis following heating was determined by fluorescence labeling and high performance liquid chromatography (HPLC).

Data set [2] concerns CCl4-induced acute hepatic disorder. The data set is described as follows: Effect on CCl4-induced acute hepatic disorder, (A)-1 (time of pre-administration). It counts as in vivo, Wistar-strain male rats. As for the experimental part:
Wistar-strain male rats were used after fasting.
The hepatic disorder inducer CCl4 was intraperitoneally administered to each group in a dose of 0.08 ml/kg (diluted with olive oil so as to give a dose volume of 5 ml/kg) and, after about 18 hours, the blood was sampled for the assay of s-GOT and s-GPT.

For data set [3] the test system is unchanged. The data set is described as follows: Effect on CCl4-induced acute hepatic disorder, (A)-2 (dose). The class given is in vivo, Male Wistar rats. Conditions: for s-GOT / s-GPT: 10 hours before CCl4. As for the experimental part:
Ten hours later, CCl4 was intraperitoneally administered in a dose of 0.08 ml/kg. About 18 hours thereafter, the blood was sampled for the assay of s-GOT and s-GPT.

Data set [4] relates to CCl4-induced chronic hepatic disorder. The data set is described as follows: Effect on CCl4-induced chronic hepatic disorder. It counts as in vivo, Male SD rats. Particulars: for Pathological examination of the liver: H.E. staining, compared with control group. As for the experimental part:
Male SD rats were used in two groups, namely the control group and the CGCa group.
CCl4 was dissolved in olive oil in a concentration of 10% (w/v) and the solution was intraperitoneally administered in a dose of 5 ml/kg twice a week (Tuesday and Friday) for 10 weeks. Three days after the last CCl4 administration, blood samples were collected in each group for the assay of s-GOT, s-GPT, etc. Assay of liver hydroxyproline (HyP) and pathological examination of the liver following H.E. staining were also performed.

For data set [5], the system named is acetaminophen-induced hepatic disorder. The data set is described as follows: Effect on acetaminophen-induced hepatic disorder. It counts as in vivo, Male SD rats. Particulars: 500 mg/kg oral, 1 hour before acetaminophen, 24 hours. As for the experimental part:
In this experiment, cysteineglucuronolactone and cysteineglucuronic acid salts (CG groups) were tested for their effects on acetaminophen-induced hepatic disorder in terms of their ability to suppress elevations in serum GOT, GPT, LDH and ALP. […] In the control and normal groups, 10 ml/kg of 0.5% CMC was orally administered and, in the CG groups, 500 mg/10 ml/kg of the respective compound was orally administered. An hour later, 400 mg/15 ml/kg of acetaminophen was intraperitoneally administered to the control and CG groups while 15 ml/kg of physiological saline was intraperitoneally administered to the normal group.

The subject of data set [6] is galactosamine-induced hepatopathy. Description: Effect on galactosamine-induced hepatopathy. The class given is in vivo, Male Wistar rats. As for the experimental part: Galactosamine-induced hepatopathy is caused by inhibition of glycoprotein and protein metabolisms and has been used as an experimental model since it pathologically resembles viral hepatitis.
(§1) Male Wistar rats were used after fasting.
Fifteen (15) hours later, a second administration was performed in the same dose. […] Twenty-four (24) hours thereafter, blood samples were collected for the assay of s-GOT and s-GPT.

For data set [7], the system named is alcohol-induced hepatopathy. Description: Effect on alcohol-induced hepatopathy (liver TG). It counts as in vivo, Male Wistar rats. As for the experimental part: as §1
After 13 hours, 20% alcohol was orally administered at 5 g/kg. After 8 hours, the liver was removed and TG was determined by the acetylacetone method.

Data set [8] is described as follows: Solubility of the calcium salt. The class given is physicochemical.
Data set [9] can be described thus: Acute oral toxicity test in mice (LD50). Conditions: mouse, in vivo.
Data set [10] deals with carbon tetrachloride-induced hepatic disorder. The data set is described as follows: Further experiments with CGL and CGNa: suppression of s-GOT and s-GPT after CCl4. Conditions: 2.0 g/kg oral 1 hour earlier than CCl4 0.08 ml/kg i.p.; versus control group. It counts as in vivo, rats. As for the experimental part: In further experiments in which cysteineglucuronolactone (CGL) and sodium cysteineglucuronate (CGNa) were respectively administered orally in a dose of 2.0 g/kg 1 hour earlier than intraperitoneal administration of 0.08 ml/kg of CCl4, the percent suppressions of s-GOT and s-GPT obtained as compared with the control group were as shown below.

The next data set has as its system hepatic disorder models. Description: Hepatic disorder models, overall statement. Conditions: oral. It counts as in vivo.
Setting [11] is: CGCa I group, 2.0 g/kg oral 12 hours before CCl4.
Setting [12] is: CGCa II group, 2.0 g/kg oral 10 hours before CCl4.
[13] abbreviates: CGCa III group, 2.0 g/kg oral 8 hours before CCl4.
Where [14] appears, read: CGCa IV group, 2.0 g/kg oral 6 hours before CCl4.
Where [15] appears, read: CGCa V group, 2.0 g/kg oral 4 hours before CCl4.
[16] abbreviates: 5% CGCa in diet, CCl4 twice a week for 10 weeks.
[17] abbreviates: 2.0 g/kg oral twice, galactosamine hydrochloride 400 mg/kg i.p., 24 hours.

`O=C(O)C1CSC(C(O)C(O)C(O)C(O)C(=O)O)N1` (stereo not shown) [CGCa, Calcium cysteineglucuronate]: the “Acute toxicity (in words)” value with mice was “somewhat increased toxicity”. Besides, the “Lapse of time until free cysteine content in plasma began to increase” value in [1] (rabbits, oral 500 mg/kg) worked out at 2 h. Also, the “Free cysteine content in plasma after 24 hours” value in data set [1] (rabbits, oral 500 mg/kg, 24 hours) is “at a normal value”. The “Duration of increased blood cysteine levels compared with equimolar cysteine” value in [1] (rabbits, oral, versus equimolar amount of cysteine) is “increased blood cysteine levels can be maintained for a prolonged period”. Besides, the “CCl4-induced increase of s-GPT (in words)” value in data set [2] (10 or 12 hours earlier administration, p<0.05) is given as “significantly suppressed”. The s-GOT in [2] (setting [11]) worked out at 1134.9 ± 361.57 Karmen units; in [2] (setting [12]), 921.6 ± 198.34 Karmen units; in [2] (setting [13]) it was 929.0 ± 201.14 Karmen units; in [2] (setting [14]), 1493.3 ± 480.60 Karmen units; in [2] (setting [15]) it was 1453.0 ± 515.58 Karmen units; in [3] (CGCa I group, 1.02 g/kg oral), 1755.6 ± 784.49 Karmen units. The s-GOT in data set [3] (CGCa II group, 1.43 g/kg oral) was found to be 1192.0 ± 264.07 Karmen units; in [3] (CGCa III group, 2.0 g/kg oral), 1106.2 ± 224.53 Karmen units; in [4] (setting [16]), 358.9 ± 157.13 Karmen units; in data set [5] it was 284.2 ± 136.3 Karmen units; in data set [6] (setting [17]), 1643.1 ± 480.43 Karmen units. For the same compound, the s-GPT was determined as 310.5 ± 68.08 Karmen units in data set [2] (setting [11]); 308.5 ± 42.30 Karmen units in data set [2] (setting [12]); 328.2 ± 105.72 Karmen units in data set [2] (setting [13]); 502.4 ± 210.66 Karmen units in [2] (setting [14]); 516.3 ± 166.50 Karmen units in data set [2] (setting [15]); 427.2 ± 131.72 Karmen units in data set [3] (CGCa I group, 1.02 g/kg oral). Further, the s-GPT in data set [3] (CGCa II group, 1.43 g/kg oral) is recorded as 309.5 ± 86.25 Karmen units; in data set [3] (CGCa III group, 2.0 g/kg oral), 299.9 ± 79.85 Karmen units; in data set [4] (setting [16]) it was 130.3 ± 53.56 Karmen units; in data set [5], 121.7 ± 33.7 Karmen units; in data set [6] (setting [17]), 702.3 ± 223.08 Karmen units. For the same compound, in data set [2] (administered 8 to 10 hours earlier than CCl4, p<0.05), the “CCl4-induced increase of s-GOT (in words)” value is on record as “significantly suppressed (p<0.05)”. Also, the “increase in s-GOT” value in data set [3] (1.43 g/kg) is listed as “tendency toward suppression”; in data set [3] (2.0 g/kg, p<0.05), “significantly suppressed (p<0.05)”. The “increase of s-GPT (in words)” value in data set [3] (1.43 g/kg, p<0.05) is “significantly suppressed”. Moreover, the “increase in s-GPT (in words)” value in data set [3] (2.0 g/kg, p<0.05) is reported as “significantly suppressed (p<0.05)”. Moreover, the “elevation of LDH (in words)” value in [4] (0.05<p<0.10) is given as “tended to suppress”. Further, the ALP was 59.5 ± 23.83 King-Armstrong units in [4] (setting [16]) and 11.4 ± 1.52 BL (BesseyLowry) units in [5]. The Albumin in [4] (setting [16]) came out at 3.4 ± 0.28 g/dL. Moreover, the Cholinesterase in [4] (setting [16]) is on record as 0.014 ± 5.16 × 10^-3 ΔpH. Also, the LDH in data set [4] (setting [16]) stood at 491.7 ± 312.24 Wroblewski units; in [5] it was 705.1 ± 283.3 Wroblewski units. For the same compound, the “Liver HyP” value in [4] (setting [16]) was determined as 371.6 ± 93.05 µg/g. Further, the Serum iron in [4] (setting [16]) was found to be 215.0 ± 39.01 µg/dL. The Total bilirubin in [4] (setting [16]) came to 0.35 ± 0.108 mg/dL. This compound gave a γ-GTP in data set [4] (setting [16]) of 3.0 ± 1.50 mU/ml. The “Pathological examination of the liver” value in data set [4] was “although vacuolar degeneration was found, the original lobular structure of the liver was preserved without evidence of hepatocirrhosis, such as formation of pseudolobules; also recorded: Necrosis was scattered and cellular infiltration was slight as compared with the control group; also recorded: effective against the damage and fibrosis of hepatocytes”; in data set [4] (listed as CGC2) it was “suppression of the fibrosis”. In addition, in [4] (liver, p<0.05), the “elevation of hydroxyproline (HyP) (in words)” value was “significantly suppressed”. Further, the “elevation of s-GOT (in words)” value is listed as “significantly suppressed” in data set [4] (p<0.05) and “inhibited the elevations significantly (p<0.05)” in data set [6] (oral, p<0.05). Further, the “elevation of s-GPT (in words)” value is reported as “significantly suppressed” in data set [4] (p<0.05) and “inhibited the elevations significantly (p<0.05)” in data set [6] (oral, p<0.05). The “Liver TG” value in data set [7] (2.0 g/kg oral 13 hours before 20% alcohol 5 g/kg, 8 hours after alcohol) stood at 4.4 ± 1.29 mg/g liver. Besides, in data set [7] (oral, p<0.05), the “increase of liver TG level due to alcohol (in words)” value is reported as “significantly suppressed this increase (p<0.05)”. Besides, the “Solubility (in words)” value in data set [8] is given as “low solubility”. In addition, in [9], the LD50 – broadly, the dose expected to kill half of the subjects tested – is 7500 mg/kg.

With `O=C(O)C1CSC(C(O)C2OC(=O)C(O)C2O)N1` (stereo not shown) [CGL, Cysteineglucuronolactone], in [1], the “Transfer to bloodstream on oral administration” value was “translocated into the bloodstream”. Also, in [10], the “Suppression of s-GOT” value came to 35.0% and the “Suppression of s-GPT” value was 34.8%. In data set [5], the ALP is listed as 10.7 ± 1.04 BL (BesseyLowry) units, the LDH came out at 540.3 ± 238.1 Wroblewski units, the s-GOT is 185.0 ± 83.3 Karmen units and the s-GPT stood at 85.5 ± 22.7 Karmen units. Besides, in the data set on hepatic disorder models, the “depression of GOT (in words)” value is “significant depressions” and the “depression of GPT (in words)” value is “significant depressions”.

For the compound `O=C(O)C1CSC(C(O)C(O)C(O)C(O)C(=O)O)N1` (stereo not shown) [CGMg, Magnesium cysteineglucuronate], in data set [5], the ALP is 12.8 ± 1.20 BL (BesseyLowry) units, the LDH worked out at 857.5 ± 296.1 Wroblewski units, the s-GOT amounted to 386.3 ± 88.1 Karmen units and the s-GPT is 141.9 ± 27.5 Karmen units.

With `O=C(O)C1CSC(C(O)C(O)C(O)C(O)C(=O)O)N1` (stereo not shown) [CGNa, Sodium cysteineglucuronate], in [10], the “Suppression of s-GOT” value was found to be 37.2% and the “Suppression of s-GPT” value is 39.3%. Further, in [5], the ALP is reported as 10.4 ± 1.22 BL (BesseyLowry) units, the LDH amounted to 557.2 ± 240.7 Wroblewski units, the s-GOT stood at 180.1 ± 63.0 Karmen units and the s-GPT is listed as 78.4 ± 13.7 Karmen units.

Regarding `O=C(O)C1CSC(C(O)C(O)C(O)C(O)C(=O)O)N1` (stereo not shown) [cysteineglucuronic acid, Cysteineglucuronic acid], the “Transfer to bloodstream on oral administration” value in data set [1] is given as “translocated into the bloodstream”. Further, in the data set with hepatic disorder models, the “depression of GOT (in words)” value is recorded as “significant depressions” and the “depression of GPT (in words)” value is given as “significant depressions”.
